Drawing on US7241787B2, “Substituted N-cycloexylimidazolinones, process for their preparation and their use as medicaments” (Sanofi-Aventis Deutschland GmbH, priority 2004, dated 2007), this text covers IC50 for 7 compounds.

The test deals with T1, human MCH receptor (Homo sapiens, UniProt Q99705).
T1 construct: expressed in transfected cells
T1 sequence (Q99705 whole entry): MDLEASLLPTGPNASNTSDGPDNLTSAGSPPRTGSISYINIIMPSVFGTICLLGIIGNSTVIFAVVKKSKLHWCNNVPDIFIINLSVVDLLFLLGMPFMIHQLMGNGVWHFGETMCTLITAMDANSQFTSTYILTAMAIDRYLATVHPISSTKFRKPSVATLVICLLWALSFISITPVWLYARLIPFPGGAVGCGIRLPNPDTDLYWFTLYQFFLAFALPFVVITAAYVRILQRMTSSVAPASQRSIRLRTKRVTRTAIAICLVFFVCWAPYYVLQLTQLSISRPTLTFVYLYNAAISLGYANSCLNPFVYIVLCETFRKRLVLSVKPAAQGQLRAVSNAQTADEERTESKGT
The experiment in a line: Functional measurements of cellular calcium flux (FLIPR) to determine IC50 values. It is filed as cell-based. Particulars: recombinant HEK293 cell line expressing the human MCH receptor, calcium flux after addition of agonist (MCH) in presence of ligand. The text has this:
Functional measurements to determine IC50 values
Cloning of the cDNA for the human MCH receptor, preparation of a recombinant HEK293 cell line which expresses the human MCH receptor, and functional measurements with the recombinant cell line took place in analogy to the description by Audinot et al. (J. Biol. Chem. 276, 13554–13562, 2001). A difference from the reference was, however, the use of the plasmid pEAK8 from EDGE Biosystems (USA) for the construction of the expression vector. The host used for the transfection was a transformed HEK cell line named “PEAK Stable Cells” (likewise from EDGE Biosystems). Functional measurements of the cellular calcium flux after addition of agonist (MCH) in the presence of ligand of the invention took place with the aid of the FLIPR apparatus from Molecular Devices (USA), using protocols of the apparatus manufacturer.
In the case of `CC(=O)N[C@@H]1CCN(C2CCC(n3ccn(-c4ccc(Oc5ccccc5)cc4)c3=O)CC2)C1` (stereo partly drawn) [Example 1, (R)-N-(1-{4-[2-oxo-3-(4-phenoxyphenyl)-2,3-dihydroimidazol-1-yl]cyclohexyl}pyrrolidin-3-yl)acetamide], the IC50 lay within 10 to 2000 nM.

Turning to `CN(C)CCO[C@H]1CC[C@H](n2ccn(-c3ccc(OC4CCCC4)cc3)c2=O)CC1` [Example 2, Trans-1-(4-cyclopentyloxy-phenyl)-3-[4-(2-dimethylaminoethoxy)cyclohexyl]-1,3-dihydroimidazol-2-one], the IC50 lay within 10 to 2000 nM.

As for `O=c1n(-c2ccc(Oc3ccccc3)cc2)ccn1C1CCC(N2CCN(CCO)CC2)CC1` (stereo not shown) [Example 3], the IC50 lay in the range of 2000 to 10000 nM.

For `O=c1n(-c2ccc(Oc3ccccc3)cc2)ccn1C1CCC(N2CCNCC2)CC1` (stereo not shown) [Example 5], the IC50 is 10 to 2000 nM.

With `O=c1n(-c2ccc(Oc3ccccc3)cc2)ccn1C1CCC(NC2CN3CCC2CC3)CC1` (stereo not shown) [Example 6], the half-inhibitory concentration (IC50) is 2000 to 10000 nM.

Consider `O=c1n(-c2ccc(Oc3ccccc3)cc2)ccn1C1CCC(N2CCCNCC2)CC1` (stereo not shown) [Example 8], for which the IC50 lay in the range of 10 to 2000 nM.

Consider `CN1CCN(C2CCC(n3ccn(-c4ccc(Oc5ccccc5)cc4)c3=O)CC2)CC1` (stereo not shown) [Example 9], for which the IC50 was in the range of 2000 to 10000 nM.
